Test results as given in patent US7074789B2, “Kinase inhibitors” (Amgen Inc., priority 1999, dated 2006).

Tests used:
Type in all cases: biochemical
Lck = target: T1, Lck (Homo sapiens, UniProt P06239); test: Kinase inhibition assay (33P transfer), Lck; conditions: Table 3; read-out: Lck-1
T1 construct: Kinases are expressed as either kinase domains or full length constructs; made in house
Procedure, shortened: (§1)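 Enzyme activity is taken as the amount of 33PO4 moved from ATP onto poly(Glu, Tyr) 4:1 or poly(Arg, Ser) 3:1 fixed to the plate surface. Unbound label is removed with 0.5% phosphoric acid before scintillation counting.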

Lyn = target: T2, Lyn (Homo sapiens, UniProt P07948); test: Kinase inhibition assay (33P transfer), Lyn; conditions: Table 6, Lyn-1 kinase inhibition class
T2 construct: Kinases are expressed as either kinase domains or full length constructs; made in house
Procedure, shortened: (§2)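 IC50: inhibitor concentration lowering 33P incorporation into immobilised substrate by 50%. Label transferred from ATP to poly(Glu,Tyr) 4:1 or poly(Arg,Ser) 3:1 is measured after a 0.5% phosphoric acid wash by liquid scintillation.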

Src = target: T3, Src (Homo sapiens, UniProt P12931); test: Kinase inhibition assay (33P transfer), Src; conditions: Table 6, Src-1 kinase inhibition class
T3 construct: Kinases are expressed as either kinase domains or full length constructs; made in house
Procedure, shortened: as §2

Fyn = target: T4, Fyn (Homo sapiens, UniProt P06241); test: Kinase inhibition assay (33P transfer), Fyn; conditions: read-out: Fyn-1
T4 construct: Kinases are expressed as either kinase domains or full length constructs; made in house
Procedure, shortened: as §2

Zap-70 = target: T5, Zap-70 (Homo sapiens, UniProt P43403); test: Kinase inhibition assay (33P transfer), Zap-70; conditions: Table 3; read-out: Zap-1
T5 construct: Kinases are expressed as either kinase domains or full length constructs; made in house
T5 sequence (P43403 1-619): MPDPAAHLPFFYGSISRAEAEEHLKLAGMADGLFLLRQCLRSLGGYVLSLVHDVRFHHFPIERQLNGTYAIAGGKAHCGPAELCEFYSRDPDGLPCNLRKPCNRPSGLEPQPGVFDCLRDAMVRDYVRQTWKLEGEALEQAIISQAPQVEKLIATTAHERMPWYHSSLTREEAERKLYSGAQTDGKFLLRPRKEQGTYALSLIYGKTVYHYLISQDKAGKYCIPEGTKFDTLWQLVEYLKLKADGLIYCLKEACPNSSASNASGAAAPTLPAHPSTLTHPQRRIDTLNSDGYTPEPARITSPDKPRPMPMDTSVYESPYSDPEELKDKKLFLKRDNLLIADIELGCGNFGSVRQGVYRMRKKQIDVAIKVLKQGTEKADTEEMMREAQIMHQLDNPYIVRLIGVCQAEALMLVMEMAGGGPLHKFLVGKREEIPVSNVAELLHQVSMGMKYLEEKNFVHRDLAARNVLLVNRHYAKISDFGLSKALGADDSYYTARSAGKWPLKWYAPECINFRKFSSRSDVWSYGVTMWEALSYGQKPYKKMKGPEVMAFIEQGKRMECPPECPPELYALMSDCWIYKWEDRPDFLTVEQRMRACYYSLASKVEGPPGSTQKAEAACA
Procedure, shortened: as §1

Itk = target: T6, Itk (Homo sapiens, UniProt Q08881); test: Kinase inhibition assay (33P transfer), Itk; conditions: Table 3; read-out: Itk-1
T6 construct: Kinases are expressed as either kinase domains or full length constructs; made in house
T6 sequence (Q08881 1-620): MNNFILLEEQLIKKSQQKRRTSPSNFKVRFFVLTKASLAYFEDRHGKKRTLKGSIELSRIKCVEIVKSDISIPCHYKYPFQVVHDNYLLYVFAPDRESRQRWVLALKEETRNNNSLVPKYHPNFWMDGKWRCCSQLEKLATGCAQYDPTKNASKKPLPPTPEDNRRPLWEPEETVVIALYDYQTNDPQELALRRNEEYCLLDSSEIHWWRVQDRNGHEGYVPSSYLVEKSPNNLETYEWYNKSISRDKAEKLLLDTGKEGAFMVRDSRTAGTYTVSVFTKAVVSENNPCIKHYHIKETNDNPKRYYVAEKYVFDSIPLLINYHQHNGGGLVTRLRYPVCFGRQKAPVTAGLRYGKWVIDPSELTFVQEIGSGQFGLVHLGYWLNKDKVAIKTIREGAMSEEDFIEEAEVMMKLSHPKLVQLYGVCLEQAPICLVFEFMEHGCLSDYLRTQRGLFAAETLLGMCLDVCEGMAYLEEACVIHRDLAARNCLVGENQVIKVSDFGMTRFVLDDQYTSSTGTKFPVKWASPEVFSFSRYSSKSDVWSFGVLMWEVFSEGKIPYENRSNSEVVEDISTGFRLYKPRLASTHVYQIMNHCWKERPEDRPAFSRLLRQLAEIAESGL
Procedure, shortened: as §2

Kdr = target: T7, Kdr (Homo sapiens, UniProt P35968); test: Kinase inhibition assay (33P transfer), Kdr; conditions: Table 3; read-out: KDR-1
T7 construct: Kinases are expressed as either kinase domains or full length constructs; made in house
Procedure, shortened: as §1

c-Met = target: T8, c-Met (Homo sapiens, UniProt P08581); test: Kinase inhibition assay (33P transfer), c-Met; conditions: Table 2, kinase inhibition class; read-out: Met-1
T8 construct: Kinases are expressed as either kinase domains or full length constructs; made in house
Procedure, shortened: as §2

PDGFRB = target: T9, PDGFRB (Homo sapiens, UniProt P09619); test: Kinase inhibition assay (33P transfer), PDGFRB; conditions: read-out: PDGFRB-1
T9 construct: Kinases are expressed as either kinase domains or full length constructs; made in house

FGFR1 = target: T10, FGFR1 (Homo sapiens, UniProt P11362); test: Kinase inhibition assay (33P transfer), FGFR1; conditions: read-out: FGFR1-1
T10 construct: Kinases are expressed as either kinase domains or full length constructs; made in house

IGFR-1 = target: T11, IGFR-1 (Homo sapiens, UniProt P08069); test: Kinase inhibition assay (33P transfer), IGFR-1; conditions: Table 2, kinase inhibition class
T11 construct: Kinases are expressed as either kinase domains or full length constructs; made in house

ErbB4 = target: T12, ErbB4 (Homo sapiens, UniProt Q15303); test: Kinase inhibition assay (33P transfer), ErbB4; conditions: read-out: ErbB4-1
T12 construct: Kinases are expressed as either kinase domains or full length constructs; made in house

T10 sequence (P11362 22-822, species assumed): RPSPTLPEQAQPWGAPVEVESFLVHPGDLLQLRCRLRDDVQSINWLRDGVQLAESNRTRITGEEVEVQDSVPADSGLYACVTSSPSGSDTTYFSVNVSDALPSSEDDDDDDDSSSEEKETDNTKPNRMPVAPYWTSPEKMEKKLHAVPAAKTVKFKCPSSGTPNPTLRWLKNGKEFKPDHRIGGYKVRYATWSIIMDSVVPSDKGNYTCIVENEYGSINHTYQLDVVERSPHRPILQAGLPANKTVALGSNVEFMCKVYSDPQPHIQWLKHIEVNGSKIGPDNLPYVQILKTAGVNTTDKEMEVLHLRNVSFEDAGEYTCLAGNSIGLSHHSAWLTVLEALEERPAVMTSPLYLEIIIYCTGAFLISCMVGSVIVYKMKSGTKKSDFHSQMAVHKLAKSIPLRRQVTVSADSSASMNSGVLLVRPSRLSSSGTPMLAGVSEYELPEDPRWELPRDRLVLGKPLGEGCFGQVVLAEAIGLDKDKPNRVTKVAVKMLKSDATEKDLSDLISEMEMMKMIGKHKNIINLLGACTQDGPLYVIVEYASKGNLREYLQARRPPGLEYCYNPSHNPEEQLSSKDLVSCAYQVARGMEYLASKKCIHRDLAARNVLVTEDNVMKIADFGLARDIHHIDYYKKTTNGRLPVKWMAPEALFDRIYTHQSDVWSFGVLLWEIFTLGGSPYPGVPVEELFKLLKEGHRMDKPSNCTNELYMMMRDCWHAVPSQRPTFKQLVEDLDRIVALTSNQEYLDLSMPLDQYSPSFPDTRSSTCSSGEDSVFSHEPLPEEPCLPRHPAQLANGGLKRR
T3 sequence (P12931 whole entry, species assumed, the tested form may be a part): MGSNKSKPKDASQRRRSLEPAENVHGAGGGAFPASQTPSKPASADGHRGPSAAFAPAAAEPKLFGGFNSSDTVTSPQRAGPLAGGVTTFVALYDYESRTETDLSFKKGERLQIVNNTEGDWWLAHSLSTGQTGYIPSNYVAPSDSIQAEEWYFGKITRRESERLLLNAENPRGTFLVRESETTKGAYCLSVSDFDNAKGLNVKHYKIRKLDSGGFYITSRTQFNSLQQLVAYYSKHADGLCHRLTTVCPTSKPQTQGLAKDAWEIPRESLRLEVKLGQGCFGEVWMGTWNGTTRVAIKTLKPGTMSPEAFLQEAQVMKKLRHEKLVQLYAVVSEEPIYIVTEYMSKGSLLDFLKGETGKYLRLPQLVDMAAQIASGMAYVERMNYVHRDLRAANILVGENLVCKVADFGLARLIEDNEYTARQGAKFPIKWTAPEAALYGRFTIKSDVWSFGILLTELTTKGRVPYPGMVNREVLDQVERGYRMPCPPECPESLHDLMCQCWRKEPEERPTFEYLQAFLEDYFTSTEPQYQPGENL
T11 sequence (P08069 31-1367): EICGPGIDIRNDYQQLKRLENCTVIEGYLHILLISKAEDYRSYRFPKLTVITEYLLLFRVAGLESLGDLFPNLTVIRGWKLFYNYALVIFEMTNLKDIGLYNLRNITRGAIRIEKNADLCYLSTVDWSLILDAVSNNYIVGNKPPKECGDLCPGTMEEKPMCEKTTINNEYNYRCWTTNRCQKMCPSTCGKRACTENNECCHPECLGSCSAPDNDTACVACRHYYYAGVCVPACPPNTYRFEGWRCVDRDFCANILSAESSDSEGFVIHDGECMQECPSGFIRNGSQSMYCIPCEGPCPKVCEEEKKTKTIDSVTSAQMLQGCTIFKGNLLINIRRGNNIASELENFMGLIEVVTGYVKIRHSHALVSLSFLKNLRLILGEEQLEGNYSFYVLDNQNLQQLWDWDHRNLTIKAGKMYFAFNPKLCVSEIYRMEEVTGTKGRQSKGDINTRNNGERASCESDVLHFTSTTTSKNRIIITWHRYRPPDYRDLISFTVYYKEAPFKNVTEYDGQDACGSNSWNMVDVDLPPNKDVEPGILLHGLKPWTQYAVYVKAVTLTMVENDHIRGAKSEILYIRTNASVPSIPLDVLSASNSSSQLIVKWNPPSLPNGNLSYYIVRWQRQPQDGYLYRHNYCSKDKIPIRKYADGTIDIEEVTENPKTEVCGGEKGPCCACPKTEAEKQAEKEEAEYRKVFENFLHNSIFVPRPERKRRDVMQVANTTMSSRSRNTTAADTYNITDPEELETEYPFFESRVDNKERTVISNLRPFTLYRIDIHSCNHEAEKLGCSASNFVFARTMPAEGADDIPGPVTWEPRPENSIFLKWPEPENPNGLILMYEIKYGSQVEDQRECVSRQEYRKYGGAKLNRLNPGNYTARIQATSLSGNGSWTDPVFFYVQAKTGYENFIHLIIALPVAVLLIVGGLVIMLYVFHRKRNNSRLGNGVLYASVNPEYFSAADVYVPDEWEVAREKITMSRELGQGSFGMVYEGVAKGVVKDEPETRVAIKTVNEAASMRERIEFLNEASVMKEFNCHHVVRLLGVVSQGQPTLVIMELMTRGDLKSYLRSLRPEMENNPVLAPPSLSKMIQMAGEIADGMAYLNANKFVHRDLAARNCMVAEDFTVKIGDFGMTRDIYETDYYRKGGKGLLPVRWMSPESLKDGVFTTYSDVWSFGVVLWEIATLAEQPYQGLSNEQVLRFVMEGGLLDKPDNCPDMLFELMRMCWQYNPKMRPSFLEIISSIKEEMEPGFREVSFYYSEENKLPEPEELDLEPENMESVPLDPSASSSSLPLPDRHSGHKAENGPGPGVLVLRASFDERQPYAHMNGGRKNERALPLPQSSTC
T1 sequence (P06239 whole entry, species assumed, the tested form may be a part): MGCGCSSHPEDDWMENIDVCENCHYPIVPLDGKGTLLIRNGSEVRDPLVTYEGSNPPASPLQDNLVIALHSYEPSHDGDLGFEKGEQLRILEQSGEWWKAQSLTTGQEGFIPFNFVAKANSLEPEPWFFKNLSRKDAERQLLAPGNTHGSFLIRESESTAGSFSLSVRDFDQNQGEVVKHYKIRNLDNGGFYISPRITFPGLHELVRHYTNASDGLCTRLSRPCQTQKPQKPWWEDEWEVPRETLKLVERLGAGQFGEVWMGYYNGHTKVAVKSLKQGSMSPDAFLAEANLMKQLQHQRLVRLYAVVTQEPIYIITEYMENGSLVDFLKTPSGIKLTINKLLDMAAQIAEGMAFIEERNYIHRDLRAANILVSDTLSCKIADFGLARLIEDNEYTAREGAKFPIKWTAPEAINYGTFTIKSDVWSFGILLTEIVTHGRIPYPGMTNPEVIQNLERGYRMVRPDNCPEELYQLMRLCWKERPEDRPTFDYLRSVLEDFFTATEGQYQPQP
T2 sequence (P07948 whole entry, species assumed, the tested form may be a part): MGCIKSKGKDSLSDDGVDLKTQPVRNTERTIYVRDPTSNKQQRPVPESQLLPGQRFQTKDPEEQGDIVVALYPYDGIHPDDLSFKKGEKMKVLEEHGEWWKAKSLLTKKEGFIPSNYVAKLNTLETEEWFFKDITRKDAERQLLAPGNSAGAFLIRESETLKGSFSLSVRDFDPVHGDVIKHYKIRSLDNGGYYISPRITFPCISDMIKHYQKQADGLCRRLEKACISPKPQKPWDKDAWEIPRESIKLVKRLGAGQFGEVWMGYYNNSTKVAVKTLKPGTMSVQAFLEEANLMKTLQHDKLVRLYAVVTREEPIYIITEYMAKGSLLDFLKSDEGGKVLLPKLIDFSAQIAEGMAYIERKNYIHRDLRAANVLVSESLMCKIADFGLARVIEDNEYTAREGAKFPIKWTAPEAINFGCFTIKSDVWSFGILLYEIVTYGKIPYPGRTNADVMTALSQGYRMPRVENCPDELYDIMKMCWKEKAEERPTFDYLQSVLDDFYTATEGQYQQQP
T9 sequence (P09619 33-1106, species assumed): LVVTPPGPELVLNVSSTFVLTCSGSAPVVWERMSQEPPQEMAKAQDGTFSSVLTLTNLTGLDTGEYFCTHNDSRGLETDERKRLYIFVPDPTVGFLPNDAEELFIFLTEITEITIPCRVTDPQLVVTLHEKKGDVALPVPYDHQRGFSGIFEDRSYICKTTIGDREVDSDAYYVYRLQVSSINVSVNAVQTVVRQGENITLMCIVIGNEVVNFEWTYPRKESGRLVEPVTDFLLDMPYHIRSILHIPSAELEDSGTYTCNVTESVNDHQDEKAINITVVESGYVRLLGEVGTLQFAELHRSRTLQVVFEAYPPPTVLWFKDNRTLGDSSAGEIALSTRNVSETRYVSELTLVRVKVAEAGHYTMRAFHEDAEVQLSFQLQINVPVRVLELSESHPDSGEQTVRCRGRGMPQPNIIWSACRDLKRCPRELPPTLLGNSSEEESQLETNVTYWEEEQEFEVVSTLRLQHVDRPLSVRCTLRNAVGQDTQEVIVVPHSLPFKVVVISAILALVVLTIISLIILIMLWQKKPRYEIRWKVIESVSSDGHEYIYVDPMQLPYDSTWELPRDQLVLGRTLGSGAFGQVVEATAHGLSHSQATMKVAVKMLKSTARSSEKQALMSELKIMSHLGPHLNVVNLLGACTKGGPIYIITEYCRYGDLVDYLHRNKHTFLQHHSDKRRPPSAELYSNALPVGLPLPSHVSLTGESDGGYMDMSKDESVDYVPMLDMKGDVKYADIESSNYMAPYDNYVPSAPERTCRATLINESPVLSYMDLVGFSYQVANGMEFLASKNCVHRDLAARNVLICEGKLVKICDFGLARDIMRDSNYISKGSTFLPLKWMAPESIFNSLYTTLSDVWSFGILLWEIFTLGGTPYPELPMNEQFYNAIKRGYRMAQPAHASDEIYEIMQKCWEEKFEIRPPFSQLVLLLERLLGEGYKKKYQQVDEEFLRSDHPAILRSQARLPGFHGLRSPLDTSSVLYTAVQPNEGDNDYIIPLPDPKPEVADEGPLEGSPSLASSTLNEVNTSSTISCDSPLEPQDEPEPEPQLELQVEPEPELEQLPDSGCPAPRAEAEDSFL

Row | Compound | IC50 (Lck) [µM] | IC50 (Lyn) [µM] | IC50 (Src) [µM] | IC50 (Fyn) [µM] | IC50 (Zap-70) [µM] | IC50 (Itk) [µM] | IC50 (Kdr) [µM] | IC50 (c-Met) [µM] | IC50 (PDGFRB) [µM] | IC50 (FGFR1) [µM] | IC50 (IGFR-1) [µM] | IC50 (ErbB4) [µM]
1 | COc1cc(Nc2ncnc(Nc3cnc4ccccc4c3)n2)cc(OC)c1OC [Compound 99] | 0.989 to 5.93 | 8.65 to 11.1 | 0.989 to 5.93 | 0.989 to 5.93 | > 11.1 | > 11.1 | < 0.989 | 8.65 to 11.1 | 0.989 to 5.93 | 0.989 to 5.93 |  | 
2 | COc1cc(Nc2ncnc(Nc3ccc(C(C)C)cc3)n2)cc(OC)c1OC [Compound 66] | 1.01 to 6.07 | 1.01 to 6.07 | < 1.01 | > 11.4 | 6.07 to 8.85 | > 11.4 | 1.01 to 6.07 | 1.01 to 6.07 | > 11.4 | > 11.4 | < 1.01 | 
3 | COc1cc(Nc2ncnc(Nc3cc(C)[nH]n3)n2)cc(OC)c1OC [Compound 88] | 1.12 to 6.72 | 1.12 to 6.72 | 1.12 to 6.72 | 1.12 to 6.72 | > 12.6 | 1.12 to 6.72 | < 1.12 | 1.12 to 6.72 |  |  | 1.12 to 6.72 | 
4 | COc1cc(Nc2ncnc(Nc3ccc(Cl)cc3)n2)cc(OC)c1OC [Compound 72] | 1.03 to 6.19 |  |  |  | > 11.6 | > 11.6 | < 1.03 | 9.02 to 11.6 | < 1.03 | < 1.03 | < 1.03 | 1.03 to 6.19
5 | COc1cc(Nc2ncnc(Nc3ccc(N)cc3)n2)cc(OC)c1OC [Compound 92] | > 12.2 | 1.09 to 6.51 | 9.5 to 12.2 | > 12.2 | 9.5 to 12.2 | > 12.2 | 1.09 to 6.51 | 1.09 to 6.51 | 1.09 to 6.51 | 6.51 to 9.5 | 1.09 to 6.51 | 
6 | C#Cc1cccc(Nc2ncnc(Nc3cc(OC)c(OC)c(OC)c3)n2)c1 [Compound 74] | 1.06 to 6.36 | < 1.06 | 1.06 to 6.36 | > 11.9 | > 11.9 | > 11.9 | 1.06 to 6.36 | 9.27 to 11.9 |  |  | < 1.06 | > 11.9
7 | COc1cc(Nc2ncnc(Nc3ccccc3)n2)cc(OC)c1OC [Compound 91] | 1.13 to 6.79 | 1.13 to 6.79 | 1.13 to 6.79 | < 1.13 | > 12.7 | > 12.7 | 1.13 to 6.79 | > 12.7 | < 1.13 | 6.79 to 9.9 | 1.13 to 6.79 | 
8 | COc1cccc(-c2ncnc(Nc3cc(OC)c(OC)c(OC)c3)n2)c1 [Compound 232] | 1.09 to 6.51 | > 12.2 | > 12.2 | > 12.2 | > 12.2 | > 12.2 | 1.09 to 6.51 | > 12.2 |  |  | > 12.2 | 
9 | COc1cc(Nc2ncnc(Nc3ccc(N(C)C)cc3)n2)cc(OC)c1OC [Compound 27] | 1.01 to 6.05 | 1.01 to 6.05 | 1.01 to 6.05 | 1.01 to 6.05 | > 11.4 | > 11.4 | < 1.01 | 8.83 to 11.4 | > 11.4 | 1.01 to 6.05 | < 1.01 | 
10 | COc1ccc(Nc2ncnc(Nc3cc(OC)c(OC)c(OC)c3)n2)cc1 [Compound 89] | 1.04 to 6.26 | 1.04 to 6.26 | 6.26 to 9.13 | 1.04 to 6.26 | > 11.7 | > 11.7 | < 1.04 | > 11.7 | < 1.04 | > 11.7 | 1.04 to 6.26 | 
11 | COC(=O)c1cccc(Nc2nc3ccccc3n2-c2ncnc(Nc3cc(OC)c(OC)c(OC)c3)n2)c1 [Compound 383] | 4.55 to 6.63 |  |  |  | > 8.53 | 4.55 to 6.63 | 0.758 to 4.55 | > 8.53 |  |  | > 8.53 | 
12 | COc1cc(Nc2ncnc(Nc3ccc(N4CCOCC4)cc3)n2)cc(OC)c1OC [Compound 101] | 5.47 to 7.98 | 5.47 to 7.98 | 0.912 to 5.47 | 0.912 to 5.47 | > 10.3 | > 10.3 | 0.912 to 5.47 | > 10.3 |  |  | > 10.3 | 
13 | COc1cc(Nc2ncnc(Nc3cc(OC)c(OC)c(OC)c3)n2)cc(OC)c1OC [Compound 76] | 0.902 to 5.41 | 0.902 to 5.41 | < 0.902 | 0.902 to 5.41 | > 10.1 | > 10.1 | 0.902 to 5.41 | > 10.1 |  |  | 0.902 to 5.41 | 
14 | COc1cc(Nc2ncnc(Nc3ccc(C(N)=O)cc3)n2)cc(OC)c1OC [Compound 33] | 8.83 to 11.4 | 1.01 to 6.05 | 1.01 to 6.05 | 6.05 to 8.83 | > 11.4 | > 11.4 | 1.01 to 6.05 | > 11.4 | 8.83 to 11.4 | 6.05 to 8.83 | < 1.01 | 
15 | COc1cc(Nc2ncnc(Nc3ccc(O)cc3Cl)n2)cc(OC)c1OC [Compound 77] | 0.991 to 5.94 | < 0.991 | 0.991 to 5.94 | 0.991 to 5.94 | > 11.1 | 8.67 to 11.1 | < 0.991 | > 11.1 | < 0.991 | 0.991 to 5.94 | 0.991 to 5.94 | 
16 | COc1cc(Nc2ncnc(Nc3ccccc3C)n2)cc(OC)c1OC [Compound 67] | 1.09 to 6.53 | < 1.09 | 1.09 to 6.53 | 9.53 to 12.2 | > 12.2 | > 12.2 | 1.09 to 6.53 | > 12.2 | 1.09 to 6.53 | > 12.2 | 9.53 to 12.2 | 
17 | COc1cc(Nc2ncnc(Nc3ccc4c(c3)Cc3ccccc3-4)n2)cc(OC)c1OC [Compound 95] | 0.906 to 5.44 | 5.44 to 7.93 | > 10.2 | 0.906 to 5.44 | 7.93 to 10.2 | > 10.2 | 0.906 to 5.44 | > 10.2 |  |  | 0.906 to 5.44 | 
18 | COc1cc(Nc2ncnc(Nc3ccc4ccccc4c3)n2)cc(OC)c1OC [Compound 96] | 0.991 to 5.95 | 0.991 to 5.95 | 5.95 to 8.68 | 8.68 to 11.2 | 8.68 to 11.2 | > 11.2 | 0.991 to 5.95 | > 11.2 | 0.991 to 5.95 | > 11.2 |  | 0.991 to 5.95
19 | COc1ccccc1Nc1ncnc(Nc2cc(OC)c(OC)c(OC)c2)n1 [Compound 90] | 1.04 to 6.26 | < 1.04 | 1.04 to 6.26 | < 1.04 | > 11.7 | 9.13 to 11.7 | < 1.04 | > 11.7 | < 1.04 | 1.04 to 6.26 | 1.04 to 6.26 | 
20 | COc1cc(Nc2ncnc(Nc3ccc(Br)cc3)n2)cc(OC)c1OC [Compound 82] | 0.925 to 5.55 |  |  |  | > 10.4 | > 10.4 | < 0.925 | > 10.4 | < 0.925 | 0.925 to 5.55 | 0.925 to 5.55 | 
